Reference: patent publication US20260184708A1, “PYRIDAZINONES AND METHODS OF USE THEREOF” (GFB (ABC), LLC, priority 2017, published 2026)

The compounds below were run against T1, TRPC5 (Homo sapiens, UniProt Q9UL62) (assay: TRPC5 Fluorescence Assay - FLIPR format (HEK-TREx hTRPC5, Riluzole stimulation)). Conditions: Table 7, read-out: TRPC5-FLIPR IC50.
T1 construct: expressed in transfected cells; host or cells: HEK 293
T1 sequence (Q9UL62 1-973): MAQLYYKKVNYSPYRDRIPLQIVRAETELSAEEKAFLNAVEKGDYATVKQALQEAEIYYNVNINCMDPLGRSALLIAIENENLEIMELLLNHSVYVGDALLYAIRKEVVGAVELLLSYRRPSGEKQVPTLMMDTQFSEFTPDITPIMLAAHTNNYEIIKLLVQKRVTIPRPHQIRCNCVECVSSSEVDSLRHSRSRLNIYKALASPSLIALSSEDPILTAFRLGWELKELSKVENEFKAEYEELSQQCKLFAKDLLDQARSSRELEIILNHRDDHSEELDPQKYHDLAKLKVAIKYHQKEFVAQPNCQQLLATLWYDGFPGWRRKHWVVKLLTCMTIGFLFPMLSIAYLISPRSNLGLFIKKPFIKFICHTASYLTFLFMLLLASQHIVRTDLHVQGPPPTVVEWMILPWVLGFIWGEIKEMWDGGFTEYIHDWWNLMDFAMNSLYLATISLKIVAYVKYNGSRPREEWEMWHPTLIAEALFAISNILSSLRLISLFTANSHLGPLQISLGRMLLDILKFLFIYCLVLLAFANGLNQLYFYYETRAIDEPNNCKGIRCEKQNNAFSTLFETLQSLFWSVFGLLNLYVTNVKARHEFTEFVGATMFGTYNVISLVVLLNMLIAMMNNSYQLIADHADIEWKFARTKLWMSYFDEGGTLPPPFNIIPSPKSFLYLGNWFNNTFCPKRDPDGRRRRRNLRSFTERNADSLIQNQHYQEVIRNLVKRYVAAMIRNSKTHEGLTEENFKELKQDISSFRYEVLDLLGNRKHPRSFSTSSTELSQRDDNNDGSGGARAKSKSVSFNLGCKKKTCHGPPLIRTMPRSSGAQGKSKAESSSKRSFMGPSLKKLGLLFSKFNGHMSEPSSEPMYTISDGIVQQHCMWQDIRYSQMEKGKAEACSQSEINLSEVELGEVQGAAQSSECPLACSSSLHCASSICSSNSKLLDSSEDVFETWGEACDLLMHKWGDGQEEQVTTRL
Format: cell-based
Procedure: • Cell line: ICLN-001633 • Base Cell: HEK • Channel: TRPC5 • Species: Human • Thaw ID: multiple • Passage: multiple
FLIPR Assay Buffer (Earls Balanced Salt Solution (EBSS) was prepared as follows:
Test Agent Preparation: Compounds were made up to, or supplied as, a 10 mM stock solution generally using DMSO as the vehicle. 10-point dose response curves were generated using the Echo-550 acoustic dispenser. Compound source plates were made by serially diluting compound stocks to create 10 mM, 1 mM, and 0.1 mM solutions in DMSO into Echo certified LDV plates. The Echo then serially spotted 100% DMSO stock solutions into source dose response plates to generate a 4-fold dilution scheme. 100% DMSO was added to the spotted dose response plates to bring the final volume to 5 μl. […] of the dose response stock plate was then spotted into pre-incubation and stimulation assay plates. 50 μl of pre-incubation buffer and 100 μl of stimulation buffer was then added to the plates resulting in a final assay test concentration range of 30 μM to 0.0001 μM with a final DMSO concentration of 0.3%.
Experimental Methods: Cells expressing TRPC5 (HEK-TREx hTRPC5) are plated onto 384 well, black PDL-coated microplates and maintained in TRPC5 growth media the day prior to use for experiments. TRPC5 expression is induced by the application of […] tetracycline at the time of plating. Media is removed from the plates and 10 μl of 4 μM of Fluo-4 AM (mixed with equal volume of Pluronic F-127) in EBSS is added to the cells. Cells are incubated at room temperature, protected from light, for 60-90 minutes. After the incubation period, the dye is removed and replaced with 10 μl of EBSS. Cell, pre-incubation and stimulation plates are loaded onto the FLIPR-II and the assay is initiated. The FLIPR measures a 10 second baseline and then adds 10 μl of 2× compounds (or controls). Changes in fluorescence are monitored for an additional 5 minutes. After the 5 minute pre-incubation, 20 μl of 2× Riluzole (with 1× compound or controls) is added to the cell plate. The final Riluzole stimulation concentration in the assay is 30 μM. After the Riluzole addition, changes in fluorescence are monitored for an additional 5 minutes.
Test Agent Effect: Test agent modulation of TRPC5 calcium response was determined as follows. After the Riluzole, fluorescence was monitored for a 5 minute period. The maximum relative fluorescene response (minus the control response of 1 μM of the control inhibitor) was captured and exported from the FLIPR. Test agent effect was calculated as % inhibition using the following formula: % inhibition=((RFU Test Agent−Plate Average RFU REF INHIB)/(Plate Average RFU Control−Plate Average RFU REF INHIB))×100
`COCc1ncccc1CN1CCN(c2cn[nH]c(=O)c2Cl)CC1` [drawing 926] showed an IC50 of 0.01 to 1000 nM. For `CCc1ncccc1[C@H](C)n1nnc2c1CCN(c1cn[nH]c(=O)c1Cl)C2` [drawing 928], the IC50 was 0.01 to 1000 nM. `O=c1[nH]ncc(N2CCc3c(ncn3Cc3cccnc3CC(F)F)C2)c1Cl` [drawing 929] showed an IC50 of 0.01 to 1000 nM. For `COc1nn(Cc2ccccc2C(F)F)c2c1CN(c1cn[nH]c(=O)c1Cl)CC2` [drawing 931], the IC50 was 0.01 to 1000 nM. `O=c1[nH]ncc(N2CCc3c(c(=O)[nH]n3Cc3ccccc3C(F)F)C2)c1Cl` [drawing 936] showed an IC50 of 0.01 to 1000 nM.

Same assay, conditions: Table 9, read-out: hTRPCS-FLIPR IC50
`COCc1ncccc1CN1CCN(c2cn[nH]c(=O)c2Cl)CC1` [drawing 1030] gave an IC50 of 0.01 to 1000 nM. With `O=c1[nH]ncc(N2CCN(Cc3ccccc3C(F)(F)F)CC2)c1Cl` [drawing 1036] the IC50 was 1000 to 5000 nM.

Same assay, conditions: Table 10, read-out: TRPCS-FLIPR IC50
`CCc1ncsc1Cn1nnc2c1CCN(c1cn[nH]c(=O)c1Cl)C2` was tested, and the IC50 was 0.01 to 1000 nM. Work on `O=c1[nH]ncc(N2CCc3c(nnn3Cc3ccc(F)cc3CN3CCOCC3)C2)c1Cl` yielded an IC50 of 1000 to 5000 nM. Work on `O=c1[nH]ncc(N2CCc3c(nc(Oc4cccc(F)c4)n3Cc3ccccc3C(F)(F)F)C2)c1Cl` yielded an IC50 of 0.01 to 1000 nM. For `CN(C)Cc1cc(F)ccc1Cn1nnc2c1CCN(c1cn[nH]c(=O)c1Cl)C2`, the IC50 was 1000 to 5000 nM. Compound `O=c1[nH]ncc(N2CCc3c(nnn3Cc3ccccc3CO)C2)c1Cl` has an IC50 of 1000 to 5000 nM. In the case of `CCCOc1nc2c(n1Cc1ccccc1C(F)(F)F)CCN(c1cn[nH]c(=O)c1Cl)C2`, the IC50 is reported as 0.01 to 1000 nM. In the case of `N#Cc1nn(Cc2ccccc2C(F)F)c2c1CN(c1cn[nH]c(=O)c1Cl)CC2`, the IC50 is reported as 0.01 to 1000 nM. `C[C@@H](c1ccc(F)cc1CN1CCOCC1)n1nnc2c1CCN(c1cn[nH]c(=O)c1Cl)C2` gave an IC50 of 1000 to 5000 nM. For `O=c1[nH]ncc(N2CCc3c(cnn3Cc3cccnc3[C@@H](O)C(F)(F)F)C2)c1Cl`, the IC50 was 0.01 to 1000 nM. `CO[C@@H]1CN(c2cn[nH]c(=O)c2Cl)Cc2nnn(Cc3ccccc3C(F)F)c21` gave an IC50 of 1000 to 5000 nM. With `COc1nn(Cc2ccccc2C(F)(F)F)c2c1CN(c1cn[nH]c(=O)c1Cl)CC2` the IC50 was 0.01 to 1000 nM. `O=C(c1nn(Cc2ccccc2C(F)F)c2c1CN(c1cn[nH]c(=O)c1Cl)CC2)N1CCOCC1` was tested, and the IC50 was 0.01 to 1000 nM. Compound `C[C@@H]1Cc2c(nnn2[C@H](C)c2ccc(F)cc2C(F)(F)F)CN1c1cn[nH]c(=O)c1Cl` has an IC50 of 0.01 to 1000 nM. With `CNC(=O)c1nn(Cc2ccccc2C(F)F)c2c1CN(c1cn[nH]c(=O)c1Cl)CC2` the IC50 was 0.01 to 1000 nM. For `C[C@H](c1ccc(F)cc1CN1CCOCC1)n1nnc2c1CCN(c1cn[nH]c(=O)c1Cl)C2`, the IC50 was 1000 to 5000 nM. `O=c1[nH]ncc(N2CCc3c(ncn3Cc3cccnc3[C@H](O)C(F)(F)F)C2)c1Cl` was tested, and the IC50 was 0.01 to 1000 nM. `N[C@@H](c1cc(F)ccc1Cn1nnc2c1CCN(c1cn[nH]c(=O)c1Cl)C2)C(F)(F)F` gave an IC50 of 1000 to 5000 nM. Work on `C[C@H]1c2nnn([C@@H](C)c3ccc(F)cc3C(F)(F)F)c2CCN1c1cn[nH]c(=O)c1Cl` yielded an IC50 of 0.01 to 1000 nM. In the case of `C[C@@H](c1ccc(F)cc1CN1CCN(C)CC1)n1nnc2c1CCN(c1cn[nH]c(=O)c1Cl)C2`, the IC50 is reported as 5000 to 10000 nM. For `CO[C@H]1CN(c2cn[nH]c(=O)c2Cl)Cc2nnn(Cc3ccccc3C(F)F)c21`, the IC50 was 1000 to 5000 nM. `C[C@H]1c2nnn([C@@H](C)c3ccccc3C(F)(F)F)c2CCN1c1cn[nH]c(=O)c1Cl` gave an IC50 of 0.01 to 1000 nM. Work on `Cn1c(=O)c2c(n1Cc1ccccc1C(F)(F)F)CCN(c1cn[nH]c(=O)c1Cl)C2` yielded an IC50 of 1000 to 5000 nM. In the case of `N[C@H](c1cc(F)ccc1Cn1nnc2c1CCN(c1cn[nH]c(=O)c1Cl)C2)C(F)(F)F`, the IC50 is reported as 0.01 to 1000 nM. `Cn1c(=O)c2c(n1Cc1ccccc1C(F)F)CCN(c1cn[nH]c(=O)c1Cl)C2` showed an IC50 of 0.01 to 1000 nM. Work on `C[C@@H](c1cc(F)ccc1C(F)(F)F)n1nnc2c1CCN(c1cn[nH]c(=O)c1Cl)C2` yielded an IC50 of 0.01 to 1000 nM. Compound `O=c1[nH]ncc(C2=Cc3nnn(Cc4ccccc4C(F)(F)F)c3CC2)c1Cl` has an IC50 of 1000 to 5000 nM. `O=c1[nH]ncc(N2CCc3c(c(=O)[nH]n3Cc3ccccc3C(F)F)C2)c1Cl` [drawing 1052] was tested, and the IC50 was 0.01 to 1000 nM. Compound `COc1nn(Cc2ccccc2C(F)F)c2c1CN(c1cn[nH]c(=O)c1Cl)CC2` [drawing 1056] has an IC50 of 0.01 to 1000 nM. `O=c1[nH]ncc(N2CCc3c(ncn3Cc3cccnc3CC(F)F)C2)c1Cl` [drawing 1058] showed an IC50 of 0.01 to 1000 nM. Work on `CCc1ncccc1[C@H](C)n1nnc2c1CCN(c1cn[nH]c(=O)c1Cl)C2` [drawing 1059] yielded an IC50 of 0.01 to 1000 nM. Compound `CN1CCN(Cc2nn(Cc3ccccc3C(F)F)c3c2CN(c2cn[nH]c(=O)c2Cl)CC3)C(=O)C1` [drawing 1111] has an IC50 of 0.01 to 1000 nM.
